Laboratory results reported in US20180200257A1, “METHODS FOR THE TREATMENT OF INFLAMMATORY DISORDERS” (Galapagos NV, priority 2015, published 2018).

Columns and labels:
[1] = system: Subjects With Active Crohn's Disease With Evidence of Mucosal Ulceration; assay: Study 3 - Histopathology score; type: in vivo, human; details: 200 mg, LOCF
Excerpt: Double-Blind, Randomized, Placebo-Controlled, Multi-Centre Study to Investigate the Efficacy and Safety of Compound 1 in Subjects With Active Crohn's Disease With Evidence of Mucosal Ulceration.
This is a double-blind, randomized, placebo-controlled, multi-centre Phase 2 study to investigate the efficacy and safety of Compound 1 administered once daily for the treatment of active CD with evidence of mucosal ulceration. The pharmacokinetics (including a PK substudy) and pharmacodynamics of Compound 1 and metabolite in CD will also be characterised.
A total of 180 eligible subjects will be randomized to receive Compound 1 or placebo in addition to their stable background treatment (eg, corticosteroids, aminosalicylates, or CD-related antibiotics). The study will consist of 2 parts, with total treatment duration of 20 weeks. Randomization in Part 1 will be stratified according the subject's previous anti-TNF exposure/response, CRP level at Screening, and oral corticosteroid use at visit Day −1.
After the first 10 weeks of treatment in Part 1, patients will be re-randomized for Part 2 as shown in the diagram below and will be stratified according to the subject's clinical response, previous anti-TNF exposure/response, and oral corticosteroid use at visit Day -1.
Histopathology data is collected from patients biopsy, and evaluated according to the procedure reported in D'haens et al., 1998.

[2] = system: Subjects With Active Crohn's Disease With Evidence of Mucosal Ulceration; assay: Study 3 - Inflammatory Bowel Disease Questionnaire (IBDQ) scores; type: in vivo, human; details: 200 mg, LOCF
Excerpt: Double-Blind, Randomized, Placebo-Controlled, Multi-Centre Study to Investigate the Efficacy and Safety of Compound 1 in Subjects With Active Crohn's Disease With Evidence of Mucosal Ulceration. This is a double-blind, randomized, placebo-controlled, multi-centre Phase 2 study to investigate the efficacy and safety of Compound 1 administered once daily for the treatment of active CD with evidence of mucosal ulceration. The pharmacokinetics (including a PK substudy) and pharmacodynamics of Compound 1 and metabolite in CD will also be characterised. A total of 180 eligible subjects will be randomized to receive Compound 1 or placebo in addition to their stable background treatment (eg, corticosteroids, aminosalicylates, or CD-related antibiotics). The study will consist of 2 parts, with total treatment duration of 20 weeks. Randomization in Part 1 will be stratified according the subject's previous anti-TNF exposure/response, CRP level at Screening, and oral corticosteroid use at visit Day -1. After the first 10 weeks of treatment in Part 1, patients will be re-randomized for Part 2 as shown in the diagram below and will be stratified according to the subject's clinical response, previous anti-TNF exposure/response, and oral corticosteroid use at visit Day -1. [table] The Inflammatory Bowel Disease Questionnaire (IBDQ) is a questionnaire for health-related quality of life assessment in patients with inflammatory bowel diseases: ulcerative colitis and Crohn's disease. It consists of 32 questions divided into four groups: bowel symptoms (10 items), systemic symptoms (5 items), emotional function (12 items) and social function (5 items). Every question has graded responses from 1 to 7, and thus the total score is ranging from 32 to 224 with higher scores representing better quality of life. The IBDQ is a validated assessment tool that reflects important changes in the quality of life of patients with IBD (adapted from […] et al, Inflamm Bowel Dis, Volume 10, Number 3, May 2004)

[3] = Anti-TNF experienced non-responders
[4] = baseline corticosteroid use: with steroids
[5] = baseline corticosteroid use: without steroids

O=C(Nc1nc2cccc(-c3ccc(CN4CCS(=O)(=O)CC4)cc3)n2n1)C1CC1 [Compound 1, cyclopropanecarboxylic acid {5-[4-(1,1-dioxo-thiomorpholin-4-ylmethyl)-phenyl]-[1,2,4]triazolo[1,5-a]pyridin-2-yl}-amide]
Overall total score mean, % CFB at week 10 ([1]; Anti-TNF Naïve): −14%
Overall total score mean, CFB at week 10 ([1]; Anti-TNF Naïve): −3.9
Overall total score mean, baseline ([1]; Anti-TNF Naïve): 20.3
Overall total score mean, week 10 ([1]; Anti-TNF Naïve): 16.1
Overall total score mean, % CFB at week 10 [1, 3]: −7%
Overall total score mean, CFB at week 10 [1, 3]: −3.2
Overall total score mean, baseline [1, 3]: 25.0
Overall total score mean, week 10 [1, 3]: 21.6
Overall total score mean, % CFB at week 10 [1, 4]: −15%
Overall total score mean, CFB at week 10 [1, 4]: −4.3
Overall total score mean, baseline [1, 4]: 24.9
Overall total score mean, week 10 [1, 4]: 20.3
Overall total score mean, % CFB at week 10 [1, 5]: −5%
Overall total score mean, CFB at week 10 [1, 5]: −2.7
Overall total score mean, baseline [1, 5]: 20.7
Overall total score mean, week 10 [1, 5]: 17.9
Overall total score mean, % CFB at week 10 ([1]; overall): −10%
Overall total score mean, CFB at week 10 ([1]; overall): −3.5
Overall total score mean, baseline ([1]; overall): 22.8
Overall total score mean, week 10 ([1]; overall): 19.1
Overall total score mean, % CFB at week 10 ([1]; screening CRP ≤ 10 ml/L): −20%
Overall total score mean, CFB at week 10 ([1]; screening CRP ≤ 10 ml/L): −4.8
Overall total score mean, baseline ([1]; screening CRP ≤ 10 ml/L): 21.8
Overall total score mean, week 10 ([1]; screening CRP ≤ 10 ml/L): 17.1
Overall total score mean, % CFB at week 10 ([1]; screening CRP ≥ 10 mg/L): 4%
Overall total score mean, CFB at week 10 ([1]; screening CRP ≥ 10 mg/L): −1.8
Overall total score mean, baseline ([1]; screening CRP ≥ 10 mg/L): 24.3
Overall total score mean, week 10 ([1]; screening CRP ≥ 10 mg/L): 21.8
IBDQ Bowel symptoms ([2]; Baseline): 41.07
IBDQ Emotional status ([2]; Baseline): 45.91
IBDQ Social functioning ([2]; Baseline): 19.26
IBDQ Systemic symptoms ([2]; Baseline): 16.32
IBDQ mean CFB ([2]; Baseline): 123.00
IBDQ Bowel symptoms ([2]; week 10): 9.96
IBDQ Emotional status ([2]; week 10): 12.07
IBDQ Social functioning ([2]; week 10): 6.19
IBDQ Systemic symptoms ([2]; week 10): 5.73
IBDQ mean CFB ([2]; week 10): 33.82
